Values joined by “and” are separate entries in the source; they are usually repeats but may differ in a detail not shown here. Equal entries are not always repeated. Where two headings read alike, the source gives them in different places.
Legend:
E. coli = assay: Antibacterial test on plates (zones of inhibition); type: cell-based; conditions: 20 g/L and 10 g/L on plates, Figure 11a
A549 cells = assay: MTT cytotoxicity assay; type: cell-based; conditions: for Concentration of Compounds When 80% of Cells Survive: 48 h co-culture
Procedure: The cytotoxic effect of compounds was determined by using in vitro colorimetric MTT assay. The A549 cells were seeded into 96-well microtiter tissue culture plates with a final volume of 100 μL. After attachment for 24 h, the cells were treated with different concentrations (0.1, 1, 10, 50, and 100 μM) of thiosemicarbazone compounds in the culture medium. Eight replicate wells per concentration were used and all experiments were repeated in triplicate. The solvent control (DMSO) was also assayed in parallel. The cells were incubated for 24 h and 48 h with compounds. Then, MTT dye was added 4 h before the completion of the incubation periods. The resulting formazan crystals were separated from the medium and then dissolved in 100 μL DMSO. The absorbance at 490 nm was used to quantify the plates using ELx808 Absorbance Microplate Reader (Bio-Tek, Winooski, USA).

[1] = Potentiometric titration, stability constant of complex with Mn^2+; type: physicochemical; conditions: 25 °C, water with 20% DMSO, KNO3
Procedure: (§1) The stability constant of the complex was tested using a Metrohm 877 Titrino plus automatic potentiometric titrator (Metrohm, Herisau, Switzerland). The titration temperature was maintained at 25 ± 0.5 °C with pH range of 2–11. The titration solution was water solution with 20% DMSO, and the ionic strength I = […] KNO3 (aq). The initial concentration was [L] = 0.005–0.0001 mol·L^−1, [HNO3] = 0.002 mol·L^−1, [KNO3] = 0.10 mol·L^−1, and [M] = 0.0001 mol·L^−1. The total volume was 25 mL, the titration volume was 0.004 mL·D^−1, and the response time was at least 1 min. The titration was triplicate and the titration data were fitted using Hyperquad 2013 software, where the ion product of H2O was pKw = 13.85 [18]. The distribution curve of species with pH was plotted using HySS 2009 software (Version 2009, Hyperquad Co. Ltd., London, UK). Three metal ions, Cu^2+, Zn^2+, and Mn^2+, were chosen as model ions in this work. The stability constants of the thiosemicarbazone compounds forming complexes with the above three metal ions and the species distribution under different pH conditions were investigated in detail.

[2] = Potentiometric titration, stability constant of complex with Cu^2+; type: physicochemical; conditions: 25 °C, water with 20% DMSO, KNO3
Procedure: as §1

[3] = Potentiometric titration, stability constant of complex with Zn^2+; type: physicochemical; conditions: 25 °C, water with 20% DMSO, KNO3
Procedure: as §1

tyrosinase = assay: Tyrosinase activity analysis (L-DOPA oxidation, spectrophotometry at 475 nm); type: biochemical
Procedure: Tyrosinase activity was determined by spectrophotometry, as 3,4-dihydroxyphenylalanine (L-DOPA, Sigma) oxidation activity, with a modification of a reported method. In brief, the tyrosinase solution (50 µL) was gently added to 450 µL of phosphate buffer at a concentration of 0.05 M containing 50 µM samples. The pH of the solution was maintained at 6.8. Then, the mixture was incubated at 30 °C for 10 min and 500 µL of 5 mM L-DOPA solution was added. […] This intensity of the peaks was recorded based on time. The tyrosinase activity was analyzed from the initial rate. The buffer containing 1% DMSO was used as a control sample. The inhibition rate of the test solution against tyrosinase was calculated using the corresponding negative control as a reference, and an approximation of the half-inhibitory concentration (IC50) was estimated based on the concentration-enzyme inhibition rate curve.

B. subtilis = assay: Antibacterial test on plates (zones of inhibition); type: cell-based; conditions: 20 g/L and 10 g/L on plates, Figure 11
S. aureus [4] = assay: Antibacterial test on plates (zones of inhibition); type: cell-based; conditions: for antibacterial activity on S. aureus (zones of inhibition): 20 g/L and 10 g/L on plates, Figure 11; for Concentration (bacteriostatic effect), S. aureus: Table 7, Figure 12
S. aureus [5] = assay: Antibacterial test GB/T20944.3-2008, colony count, inhibition rate; type: cell-based; conditions: Staphylococcus aureus, DY6 at 1.0 µM vs control sample, read-out: inhibition effect (colony-forming bacterial units)
Procedure: Antibacterial performance against bacteria (E. coli, S. aureus, and B. subtilis) was determined according to GB/T20944.3-2008. The inoculation suspension of bacteria was prepared and the inoculation loop was used to conduct the bacterial inoculation on the agar board for 18–24 h at 37 ± 1 °C. The sample was dipped into the conical flask filled with experimental bacteria solution with a certain concentration. After that, the oscillation culture is conducted to the samples for specified time, and 1 mL of solution was taken, diluted and distributed onto an agar plate. All plates were incubated at 37 °C for 24 h and the colonies formed were counted. […] Qt is the bacteria-colony number of viable bacteria in the plate after antibacterial treatment or grafted PAN fibers.
Figure 13 Antibacterial effect against S. aureus: (a) control sample; (b) after treatment with DY6 ay the concentration of 1.0 µM; (c) original PAN fibers; and (d) grafted DY6–PAN fibers.

[6] = L-DOPA substrate, pH 6.8, 30 °C, approximation from concentration-inhibition curve, read-out: IC50 (semi-inhibitory concentration of tyrosinase)

Row | Compound | antibacterial effect on E. coli (E. coli) | effective concentration (A549 cell survival rate maintained above 80%) (A549 cells) | Concentration of Compounds When 80% of Cells Survive (A549 cells) | logKMn^2+, n = 1 [1] | logKCu^2+, n = 1 [2] | logKZn^2+, n = 1 [3] | IC50 (tyrosinase; [6]) | antibacterial activity on B. subtilis (zones of inhibition) (B. subtilis) | antibacterial activity on S. aureus (zones of inhibition) (S. aureus [4]) | Concentration (bacteriostatic effect), S. aureus (S. aureus [4]) | IC50 (tyrosinase; L-DOPA method, blank control 1% DMSO, read-out: IC50 (semi-inhibitory curve, Figure 3)) | inhibition at 1 µM (S. aureus [5])
1 | Cc1ccc(O)c(/C=N/NC(N)=S)c1 [DY1] | do not have an antibacterial effect | up to 100 μM | <100 µM | 13.67 ± 0.31 M^−1 | 19.15 ± 0.11 M^−1 | 13.13 ± 0.21 M^−1 | 1880 nM | good antibacterial activities | good antibacterial activities | 0.02 µM |  | 
2 | NC(=S)N/N=C/c1cc(O)ccc1O [DY2] |  |  |  | 14.27 ± 0.17 M^−1 | 18.83 ± 0.14 M^−1 | 13.53 ± 0.11 M^−1 |  |  |  |  |  | 
3 | COc1ccc(/C=N/NC(N)=S)c(O)c1 [DY4] | do not have an antibacterial effect | up to 100 μM | <100 µM | 14.01 ± 0.08 M^−1 | 18.95 ± 0.10 M^−1 | 13.56 ± 0.17 M^−1 | 1120 nM | good antibacterial activities | good antibacterial activities |  |  | 
4 | CCN(CC)c1ccc(/C=N/NC(N)=S)c(O)c1 [DY6] | do not have an antibacterial effect | up to 100 μM | <100 µM | 14.37 M^−1 and 14.37 ± 0.30 M^−1 | 20.15 M^−1 and 20.15 ± 0.14 M^−1 | 14.07 M^−1 and 14.07 ± 0.37 M^−1 | 600 nM | good antibacterial activities | good antibacterial activities | 0.02 µM | 600 nM | 88.6%
5 | NC(=S)N/N=C/c1cc([N+](=O)[O-])ccc1O [DY3] |  | 50 µM | <50 µM | 14.48 ± 0.11 M^−1 | 19.10 ± 0.15 M^−1 | 13.69 ± 0.12 M^−1 | 9880 nM |  |  |  |  | 
6 | NC(=S)N/N=C/c1cc(Cl)ccc1O [DY5] | do not have an antibacterial effect | 50 µM | <50 µM | 13.65 ± 0.16 M^−1 | 19.43 ± 0.22 M^−1 | 12.51 ± 0.20 M^−1 | 1680 nM | good antibacterial activities | good antibacterial activities |  |  | 
7 | NC(=S)N/N=C/c1ccc2c(c1)OCCO2 [DY7] |  | 50 µM | <50 µM |  |  |  | 41200 nM |  |  |  |  | 

— article PMC6926618, “Modification of Polyacrylonitrile Fibers by Coupling to Thiosemicarbazones” (Materials, 2019)
